The values below come from ChEMBL document CHEMBL1201862, “PubChem BioAssay data set” (2004).

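Step 1: Grow cells in 96-well plates. Step 2: Expose to compound for 48 hours at 5 concentrations. Step 3: Interpolate endpoints linearly; if unreached, use highest concentration. The concentration for 50% growth inhibition is given as GI50.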 Active and inactive are the calls of the source. Rule as the data show it: active = GI50 up to about 1.1 µM and inactive = higher.

Among the test systems are DLD-1; HOP-18; KM-20L2; M19-MEL; RXF 631; SNB-78; XF498; MCF7; MDA-N.
Holding throughout (assay): NCI anticancer screen, dose series, 48 h

`O=C(NC(=O)c1cn(CCN(CCO)C(=O)NCCCCCCNC(=O)N(CCO)CCn2cc(C(=O)NC(=O)OCc3ccccc3)c(=O)[nH]c2=O)c(=O)[nH]c1=O)OCc1ccccc1`: the GI50 with DLD-1, with HOP-18, in the assay with KM-20L2, in the assay with M19-MEL, with RXF 631 and with SNB-78 was > 100 µM (inactive) in each case. The GI50 with XF498 is > 100 µM (inactive).

As for `CCOc1ccc(NC(=O)C2=C(C)NC(C)=C(C(=O)Nc3ccc(OCC)cc3)C2c2ccccc2)cc1`, the GI50 is 97.7 µM (inactive) with DLD-1; 67 µM (inactive) with KM-20L2; > 100 µM (inactive) with M19-MEL; > 100 µM (inactive) with RXF 631; > 100 µM (inactive) with SNB-78; > 100 µM (inactive) in the assay on XF498.

For the compound `Cc1ccc(S(=O)(=O)SCc2ccccc2CSS(=O)(=O)c2ccc(C)cc2)cc1`, the GI50 is 15.2 µM (inactive) in the assay with DLD-1; > 100 µM (inactive) with HOP-18; 78.3 µM (inactive) with KM-20L2; 23.5 µM (inactive) with M19-MEL; > 100 µM (inactive) with RXF 631; 20.1 µM (inactive) in the assay on SNB-78. In addition, in the assay with XF498, the GI50 was 24.2 µM (inactive).

Regarding `N#CCc1ccc(C(C#N)/C(CCCC(=O)Nc2cccc([N+](=O)[O-])c2)=N/NC(N)=S)cc1` (configuration not stated), the GI50 in the assay with DLD-1 is 87.5 µM (inactive); in the assay on HOP-18, > 100 µM (inactive); with KM-20L2 it was > 100 µM (inactive); with RXF 631, 86.5 µM (inactive); in the assay on SNB-78, 57.7 µM (inactive).

For the compound `C=C(CN(C)C)C(=O)c1ccc(Oc2ccccc2)cc1`, the GI50 was 2.22 µM (inactive) in the assay on DLD-1; 6.87 µM (inactive) in the assay on HOP-18; 12.2 µM (inactive) in the assay with KM-20L2; 4.25 µM (inactive) in the assay with M19-MEL; 3.3 µM (inactive) in the assay on MCF7; 3.02 µM (inactive) with MDA-N. The GI50 with RXF 631 was 19.3 µM (inactive); in the assay with SNB-78, 16.3 µM (inactive); in the assay on XF498, 14.8 µM (inactive).

As to `CCCCN(CCCC)CC(C(C)=O)C(c1ccccc1)c1c(O)c2ccccc2oc1=O` (configuration not stated), the GI50 with DLD-1, in the assay on HOP-18, in the assay on KM-20L2, with M19-MEL, in the assay with RXF 631 and in the assay on SNB-78 was > 100 µM (inactive) throughout. In addition, the GI50 in the assay on XF498 is > 100 µM (inactive).

On to `N#CC(C#N)C(c1ccccc1)c1ccccc1`, for which the GI50 with DLD-1, with HOP-18, in the assay with KM-20L2, in the assay with RXF 631 and in the assay on SNB-78 was > 100 µM (inactive) throughout.

As to `CCN(CC)C(=O)COc1ccc(Br)cc1Br`, the GI50 with DLD-1, with HOP-18, in the assay on KM-20L2, in the assay with M19-MEL, in the assay with RXF 631 and in the assay with SNB-78 was > 100 µM (inactive) throughout.

With `COc1cccc(NC(=O)C(=O)C(C(C)=O)c2nc3ccc(Cl)cc3nc2O)c1` (configuration not stated), the GI50 in the assay with DLD-1, with HOP-18, in the assay on KM-20L2, in the assay on M19-MEL, in the assay on RXF 631 and in the assay with SNB-78 was > 100 µM (inactive) in each case.

Take `O=C(C(=O)c1ccc(Cc2ccc(C(=O)C(=O)c3ccccc3)cc2)cc1)c1ccccc1`: the GI50 in the assay with DLD-1, in the assay on HOP-18, in the assay on KM-20L2, with M19-MEL, with RXF 631 and in the assay with SNB-78 was > 100 µM (inactive) in each case.

For `CC1(C)CCC[C@@]2(C)C1CCC1(C)C(CCc3ccoc3)/C(=C/OS(=O)(=O)O)CCC12` (some centres not stated), the GI50 in the assay on DLD-1 is 34.5 µM (inactive); with HOP-18, > 100 µM (inactive); in the assay on KM-20L2 it was 38.2 µM (inactive); in the assay with M19-MEL, > 100 µM (inactive); in the assay on RXF 631 it was > 100 µM (inactive); in the assay on SNB-78, 45.2 µM (inactive). The GI50 in the assay on XF498 was > 100 µM (inactive).

With `CC(C)(c1ccc(C=O)o1)c1ccc(C(C)(C)c2ccc(C=O)o2)o1`, the GI50 in the assay on HOP-18, in the assay on KM-20L2, in the assay with RXF 631 and in the assay on SNB-78 was > 100 µM (inactive) each time.

For `O=C(Cc1ccccc1)NN1C(=O)C(Cl)C1c1ccccc1Cl` (configuration not stated), the GI50 in the assay with DLD-1 is > 69.2 µM (inactive); with HOP-18, > 100 µM (inactive); in the assay on KM-20L2, 98.6 µM (inactive); with M19-MEL, > 100 µM (inactive); with SNB-78, 83.6 µM (inactive); in the assay with XF498, > 75 µM (inactive).

With `CC(=O)C1C(c2ccc(N(C)C)cc2)c2cc3c(cc2OC1(C)O)OCO3` (configuration not stated), the GI50 with DLD-1 was 59.3 µM (inactive); in the assay on HOP-18 it was 68.9 µM (inactive); in the assay with KM-20L2 it was 6.85 µM (inactive); in the assay with M19-MEL, 45.2 µM (inactive); in the assay on SNB-78, 56 µM (inactive); with XF498, 34 µM (inactive).

For `CCOC(=O)Nc1nc2cc(Cn3cccc3)ccc2[nH]1`, the GI50 in the assay on DLD-1 is 3.93 µM (inactive); in the assay with HOP-18 it was 4.52 µM (inactive); in the assay on KM-20L2, 3.25 µM (inactive); with M19-MEL it was 6.37 µM (inactive); in the assay on MCF7, 1.7 µM (inactive); in the assay on MDA-N it was 0.157 µM (active). The GI50 is > 22.3 µM (inactive) in the assay with RXF 631, 8.99 µM (inactive) in the assay with SNB-78 and 3.5 µM (inactive) in the assay with XF498.

In the case of `COc1ccc2c(c1)C=C(C(C)(C)C)NS2(=O)=O`, the GI50 in the assay on DLD-1, in the assay with HOP-18, with KM-20L2, in the assay with M19-MEL, in the assay on RXF 631 and in the assay on SNB-78 was > 100 µM (inactive) each time.

Consider `C=C(CN(C)C)C(=O)c1ccccc1`, for which the GI50 was 2.11 µM (inactive) in the assay on DLD-1; 3.52 µM (inactive) with HOP-18; 19.1 µM (inactive) in the assay with KM-20L2; 9.33 µM (inactive) in the assay with M19-MEL; 14.2 µM (inactive) in the assay with MDA-N; 24.1 µM (inactive) with RXF 631. In addition, the GI50 with SNB-78 was 22.2 µM (inactive); in the assay with XF498, 15.4 µM (inactive).

Turning to `CCCn1c(SCC)c2cc3cc4ccccc4cc3cc2c1-c1nc(F)nc(F)n1`, the GI50 in the assay on KM-20L2, with M19-MEL, with RXF 631, in the assay on SNB-78 and in the assay on XF498 was > 100 µM (inactive) throughout.

Turning to `Cc1nc(Nc2ccccc2)sc1C(=O)NNc1ccc([N+](=O)[O-])cc1[N+](=O)[O-]`, the GI50 was 25.5 µM (inactive) with DLD-1; 21.5 µM (inactive) in the assay on HOP-18; 24.7 µM (inactive) in the assay with KM-20L2; 36 µM (inactive) in the assay on M19-MEL; 49.2 µM (inactive) with SNB-78; 24.3 µM (inactive) in the assay on XF498.

Take `CC(=O)c1cccc(N2COC(C)(C)c3nc4ccccc4n3C2)c1`: the GI50 in the assay with DLD-1, in the assay with HOP-18, in the assay on KM-20L2, with M19-MEL, in the assay on SNB-78 and with XF498 was > 100 µM (inactive) in each case.
